Reference: the supplement of paper PMC13207355

Key:
Conditions in all cases: exposure time: 72 h
E21 [1] = patient-derived glioblastoma stem cells of mesenchymal subtype; test: phenotypic distance (Euclidean, principal components) from DMSO controls (arbitrary units); higher = stronger morphological change
E28 [2] = patient-derived glioblastoma stem cells of classical subtype; test: as above
E34 [3] = patient-derived glioblastoma stem cells of proneural subtype; test: as above
FT3469 [4] = normal neural stem cell line; test: as above
E13 [5] = patient-derived glioblastoma stem cells of classical subtype; test: as above
E57 [6] = patient-derived glioblastoma stem cells of mesenchymal subtype; test: as above
E21 [7] = test: surviving fraction (nuclei count normalised to DMSO); higher = more cells surviving (less toxic)
E28 [8] = test: as above
E34 [9] = test: as above
FT3469 [10] = test: as above
E13 [11] = test: as above
E57 [12] = test: as above
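Wherever phenotypic distance (Euclidean, principal components) from DMSO controls is given: cell Painting imaging in 384-well plates, CellProfiler features reduced to at least 20 principal components, Euclidean distance versus same-plate DMSO vehicle wells (0.1% v/v), median over six images per well.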
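Wherever surviving fraction (nuclei count normalised to DMSO) is given: nuclei counted by high-content imaging of Hoechst-stained cells in laminin-coated 384-well plates, relative to 0.1% DMSO vehicle wells, with staurosporine as cell-death control.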

O=C(C1CC1)N1CC[C@@H](Cc2n[nH]c(=O)n2-c2ccc(-c3ccc4occc4c3)cc2)C1
Conditions | phenotypic distance | surviving fraction
E13 [5], 4.1 nM | 3.07 | –
E13 [5], 12.3 nM | 3.018 | –
E13 [5], 37 nM | 3.95 | –
E13 [5], 111.1 nM | 3.29 | –
E13 [5], 333.3 nM | 3.49 | –
E13 [5], 1000 nM | 3.21 | –
E13 [5], 3000 nM | 2.99 | –
E13 [11], 4.1 nM | – | 0.7243
E13 [11], 12.3 nM | – | 0.771
E13 [11], 37 nM | – | 0.726
E13 [11], 111.1 nM | – | 0.671
E13 [11], 333.3 nM | – | 0.641
E13 [11], 1000 nM | – | 0.744
E13 [11], 3000 nM | – | 0.66
E21 [1], 4.1 nM | 2.24 | –
E21 [1], 12.3 nM | 2.337 | –
E21 [1], 37 nM | 2.41 | –
E21 [1], 111.1 nM | 2.65 | –
E21 [1], 333.3 nM | 2.64 | –
E21 [1], 1000 nM | 2.59 | –
E21 [1], 3000 nM | 2.62 | –
E21 [7], 4.1 nM | – | 0.835
E21 [7], 12.3 nM | – | 0.849
E21 [7], 37 nM | – | 0.804
E21 [7], 111.1 nM | – | 0.777
E21 [7], 333.3 nM | – | 0.749
E21 [7], 1000 nM | – | 0.789
E21 [7], 3000 nM | – | 0.732
E28 [2], 4.1 nM | 2.86 | –
E28 [2], 12.3 nM | 3.11 | –
E28 [2], 37 nM | 3.37 | –
E28 [2], 111.1 nM | 3.59 | –
E28 [2], 333.3 nM | 3.55 | –
E28 [2], 1000 nM | 3.85 | –
E28 [2], 3000 nM | 3.76 | –
E28 [8], 4.1 nM | – | 0.827
E28 [8], 12.3 nM | – | 0.792
E28 [8], 37 nM | – | 0.771
E28 [8], 111.1 nM | – | 0.752
E28 [8], 333.3 nM | – | 0.786
E28 [8], 1000 nM | – | 0.662
E28 [8], 3000 nM | – | 0.704
E34 [3], 4.1 nM | 1.76 | –
E34 [3], 12.3 nM | 2.04 | –
E34 [3], 37 nM | 2.26 | –
E34 [3], 111.1 nM | 2.59 | –
E34 [3], 333.3 nM | 2.265 | –
E34 [3], 1000 nM | 2.464 | –
E34 [3], 3000 nM | 2.5 | –
E34 [9], 4.1 nM | – | 0.853
E34 [9], 12.3 nM | – | 0.872
E34 [9], 37 nM | – | 0.906
E34 [9], 111.1 nM | – | 0.895
E34 [9], 333.3 nM | – | 0.879
E34 [9], 1000 nM | – | 0.864
E34 [9], 3000 nM | – | 0.811
E57 [6], 4.1 nM | 3.85 | –
E57 [6], 12.3 nM | 3.99 | –
E57 [6], 37 nM | 4.34 | –
E57 [6], 111.1 nM | 4.35 | –
E57 [6], 333.3 nM | 4.55 | –
E57 [6], 1000 nM | 4.45 | –
E57 [6], 3000 nM | 4.65 | –
E57 [12], 4.1 nM | – | 0.616
E57 [12], 12.3 nM | – | 0.62
E57 [12], 37 nM | – | 0.578
E57 [12], 111.1 nM | – | 0.574
E57 [12], 333.3 nM | – | 0.526
E57 [12], 1000 nM | – | 0.53
E57 [12], 3000 nM | – | 0.469
FT3469 [4], 4.1 nM | 2.28 | –
FT3469 [4], 12.3 nM | 2.24 | –
FT3469 [4], 37 nM | 2.6 | –
FT3469 [4], 111.1 nM | 3.07 | –
FT3469 [4], 333.3 nM | 2.8 | –
FT3469 [4], 1000 nM | 3.17 | –
FT3469 [4], 3000 nM | 3.52 | –
FT3469 [10], 4.1 nM | – | 0.786
FT3469 [10], 12.3 nM | – | 0.874
FT3469 [10], 37 nM | – | 0.823
FT3469 [10], 111.1 nM | – | 0.77
FT3469 [10], 333.3 nM | – | 0.783
FT3469 [10], 1000 nM | – | 0.769
FT3469 [10], 3000 nM | – | 0.666
